From PubChem BioAssay (NCI)
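All cell lines were grown in 96-well plates and treated with compound for 48 hours. Definition used: TGI = concentration required for complete inhibition of growth.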

Assays:
Experiment in all cases: NCI tumour cell line growth inhibition, 48 h
[1] = test system: A549 NSCLC
[2] = test system: DLD-1 colon
[3] = test system: EKVX NSCLC
[4] = test system: HCC-2998 colon
[5] = test system: HCT-116 colon
[6] = test system: HOP-62 NSCLC
[7] = test system: HT29 colon
[8] = test system: IGROV1 ovarian
[9] = test system: KM20L2 colon
[10] = test system: NCI-H226 lung
[11] = test system: OVCAR-8 ovarian
[12] = test system: RXF 393 renal
[13] = test system: SK-MEL-2 melanoma
[14] = test system: SN12C renal
[15] = test system: SNB-19 CNS
[16] = test system: SNB-75 CNS
[17] = test system: SR leukemia
[18] = test system: TK-10 renal
[19] = test system: UACC-257 melanoma
[20] = test system: UO-31 renal
[21] = test system: XF 498 CNS
[22] = test system: 786-0 renal
[23] = test system: A498 renal
[24] = test system: ACHN renal
[25] = test system: CAKI-1 renal
[26] = test system: CCRF-CEM leukemia
[27] = test system: COLO 205 colon
[28] = test system: DMS 114 small cell lung
[29] = test system: HL-60(TB) leukemia
[30] = test system: HOP-92 NSCLC
[31] = test system: K-562 leukemia
[32] = test system: KM12 colon
[33] = test system: LXFL 529 NSCLC
[34] = test system: M14 melanoma
[35] = test system: M19-MEL melanoma
[36] = test system: MALME-3M melanoma
[37] = test system: MOLT-4 leukemia
[38] = test system: NCI-H23 lung
[39] = test system: NCI-H460 lung
[40] = test system: NCI-H522 lung
[41] = test system: OVCAR-3 ovarian
[42] = test system: OVCAR-4 ovarian
[43] = test system: OVCAR-5 ovarian
[44] = test system: RPMI-8226 leukemia
[45] = test system: SF-268 CNS
[46] = test system: SF-295 CNS
[47] = test system: SK-MEL-28 melanoma
[48] = test system: SK-OV-3 ovarian
[49] = test system: SNB-78 CNS
[50] = test system: SW-620 colon
[51] = test system: U251 CNS
[52] = test system: UACC-62 melanoma
[53] = test system: DMS 273 small cell lung
[54] = test system: HCT-15 colon
[55] = test system: LOX IMVI melanoma
[56] = test system: SF-539 CNS
[57] = test system: SK-MEL-5 melanoma

COc1c(C)cc2c(c1O)C1C3[C@H]4SC[C@@]5(NCCC6=C5NC5C=CC=CC65)C(=O)OCC(c5c6c(c(C)c(OC(C)=O)c54)OCO6)N3[C@@H](O)C(C2)N1C (some centres not stated)
TGI [1]: 1.72 µM
TGI [2]: 1.92 µM
TGI [3]: 0.24 µM
TGI [4]: 0.0109 µM
TGI [5]: > 100 µM
TGI [6]: < 0.01 µM
TGI [7]: 10.3 µM
TGI [8]: 1.85 µM
TGI [9]: 1.45 µM
TGI [10]: 0.0859 µM
TGI [11]: < 0.01 µM
TGI [12]: < 0.01 µM
TGI [13]: < 0.01 µM
TGI [14]: 1.3 µM
TGI [15]: 3.64 µM
TGI [16]: < 0.01 µM
TGI [17]: > 100 µM
TGI [18]: 12.8 µM
TGI [19]: < 0.01 µM
TGI [20]: 0.0112 µM
TGI [21]: < 0.01 µM

Nc1ccccc1/C(O)=C1/CCOC1=O
TGI [22]: > 100 µM
TGI [23]: > 100 µM
TGI [1]: > 100 µM
TGI [24]: > 100 µM
TGI [25]: > 100 µM
TGI [26]: > 100 µM
TGI [27]: > 100 µM
TGI [2]: > 100 µM
TGI [28]: > 100 µM
TGI [3]: > 100 µM
TGI [5]: > 100 µM
TGI [29]: > 100 µM
TGI [6]: > 100 µM
TGI [30]: > 100 µM
TGI [7]: > 100 µM
TGI [8]: > 100 µM
TGI [31]: > 100 µM
TGI [32]: > 100 µM
TGI [33]: > 100 µM
TGI [34]: > 100 µM
TGI [35]: > 100 µM
TGI [36]: > 100 µM
TGI [37]: > 100 µM
TGI [10]: > 100 µM
TGI [38]: > 100 µM
TGI [39]: > 100 µM
TGI [40]: > 100 µM
TGI [41]: > 100 µM
TGI [42]: > 100 µM
TGI [43]: > 100 µM
TGI [11]: > 100 µM
TGI [44]: > 100 µM
TGI [45]: > 100 µM
TGI [46]: > 100 µM
TGI [13]: > 100 µM
TGI [47]: > 100 µM
TGI [48]: > 100 µM
TGI [14]: > 100 µM
TGI [15]: > 100 µM
TGI [16]: > 100 µM
TGI [49]: > 100 µM
TGI [17]: > 100 µM
TGI [50]: > 100 µM
TGI [18]: > 100 µM
TGI [51]: > 100 µM
TGI [19]: > 100 µM
TGI [52]: > 100 µM
TGI [20]: > 100 µM
TGI [21]: > 100 µM

Clc1ccc(C[P+](c2ccccc2)(c2ccccc2)c2ccccc2)c(Cl)c1
TGI [23]: 30.6 µM
TGI [1]: 32.5 µM
TGI [24]: 47.6 µM
TGI [26]: 21.3 µM
TGI [27]: 2.44 µM
TGI [28]: 6 µM
TGI [53]: 10.1 µM
TGI [3]: 31.4 µM
TGI [4]: 15.1 µM
TGI [5]: 10.3 µM
TGI [54]: > 100 µM
TGI [29]: 3.25 µM
TGI [6]: 27.9 µM
TGI [30]: 5.76 µM
TGI [7]: 10.4 µM
TGI [8]: 15.6 µM
TGI [32]: 7.01 µM
TGI [9]: 18.9 µM
TGI [55]: 12.9 µM
TGI [33]: 12.5 µM
TGI [34]: 14.3 µM
TGI [35]: 11.5 µM
TGI [36]: 15.7 µM
TGI [37]: 18.1 µM
TGI [10]: 7.77 µM
TGI [38]: 13 µM
TGI [39]: 11.8 µM
TGI [40]: 7.18 µM
TGI [41]: 13.8 µM
TGI [42]: 35.6 µM
TGI [43]: 18.9 µM
TGI [11]: 20.1 µM
TGI [44]: 5.31 µM
TGI [12]: 8.67 µM
TGI [45]: 24 µM
TGI [46]: 12.3 µM
TGI [56]: 15.8 µM
TGI [13]: 7.71 µM
TGI [47]: 20.1 µM
TGI [57]: 3.38 µM
TGI [48]: 24.4 µM
TGI [14]: 12.4 µM
TGI [15]: 13 µM
TGI [16]: 7.54 µM
TGI [49]: 11 µM
TGI [17]: 8.13 µM
TGI [50]: 21.4 µM
TGI [18]: 25.6 µM
TGI [51]: 18.8 µM
TGI [19]: 7.64 µM
TGI [52]: 12.6 µM
TGI [21]: 4.4 µM
